Series [1] is described as follows: Preemergence herbicidal activity (% control) against monocot weeds. The format is in vivo. Particulars: pre-emergence, 336 h, average, about two weeks after application, read-out: Herbicidal activity (% control), preemergence, monocots; for activity at 4483.4 g/ha: 4 lb./A.; for activity at 2241.7 g/ha: 2 lb./A. From the text: (§1) barnyardgrass (Echinochloa crusgalli) crabgrass (Digitaria spp.) nutsedge (Cyperus esculentus)
(§2) At 2 and 4 pounds per acre:
(§3) **Bermudagrass (Cynodon dactylon)
(§4) *downy brome (Bromus tectorum) foxtail (Setaria faberii)
(§5) Johnsongrass (Sorghum halepense) […]
(§6) quackgrass (Agropyron repens)
(§7) *ryegrass (Lolium perenne)
(§8) *wild oats (Avena factua)
(§9) *yellow millet (Panicum miliaceum)
(§10) The following test procedure is employed.

Series [2] is described as follows: Postemergence herbicidal activity (% control) against monocot weeds. Type of series: in vivo. Particulars: post-emergence, 336 h, average, about two weeks after application, read-out: Herbicidal activity (% control), postemergence, monocots; for activity at 4483.4 g/ha: 4 lb./A.; for activity at 2241.7 g/ha: 2 lb./A.
Excerpt: as §1, §2, §3, §4, §5, §6, §7, §8, §9, §10

Series [3] deals with snapbeans. The experiment in a line: Crop tolerance (selective herbicidal activity), snapbeans. The format is in vivo. Particulars: preemergence applications. The procedure: as §10
(§11) Following the general test procedure of Example 37, diphenyl ethers are evaluated for significant tolerance (as shown by 50% or less kill of the test crop at levels of application which give more than 50% kill of many or all of the weeds of Example 73) towards some or all of the following common agronomic crops (not all compounds tested against all crops): alfalfa, snapbeans, corn, cotton, cucumbers, peanuts, rape, rice, safflower, soybeans, tomatoes, and wheat.

The subject of series [4] is corn. The series is described as follows: Crop tolerance (selective herbicidal activity), corn. Type of series: in vivo.
Series [5] has as its system cotton. The series is described as follows: Crop tolerance (selective herbicidal activity), cotton. Type of series: in vivo. Particulars: preemergence applications. The procedure:
as §10, §11

The test system of series [6] is peanuts. The experiment in a line: Crop tolerance (selective herbicidal activity), peanuts. The format is in vivo.
The subject of series [7] is rice. The experiment in a line: Crop tolerance (selective herbicidal activity), rice. The format is in vivo.
In series [8] the test system is soybeans. The series is described as follows: Crop tolerance (selective herbicidal activity), soybeans. Type of series: in vivo. Particulars: preemergence applications.
Series [9] concerns wheat. The series is described as follows: Crop tolerance (selective herbicidal activity), wheat. The format is in vivo.
Series [10] can be described thus: Preemergence herbicidal activity (% control) against dicot weeds. Particulars: pre-emergence, 336 h; for activity at 4483.4 g/ha: read-out: Herbicidal activity (% control), preemergence, dicots, 4 lb./A., average, about two weeks after application; for activity at 2241.7 g/ha: read-out: Herbicidal activity (% control), preemergence, dicots, 2 lb./A., average, about two weeks after application.

Series [11] in a line: Postemergence herbicidal activity (% control) against dicot weeds. To be noted: post-emergence, 336 h; for activity at 4483.4 g/ha: read-out: Herbicidal activity (% control), postemergence, dicots, 4 lb./A., average, about two weeks after application; for activity at 2241.7 g/ha: read-out: Herbicidal activity (% control), postemergence, dicots, 2 lb./A., average, about two weeks after application.

Series [12] relates to Monocots (barnyardgrass, Bermudagrass, crabgrass, downy brome, foxtail, Johnsongrass, nutsedge, quackgrass, ryegrass, wild oats, yellow millet). The series is described as follows: Preemergence herbicidal activity (% control) against monocot weeds. To be noted: average, about two weeks after application. The format is in vivo.
Excerpt: as §1, §2, §3, §4, §5, §6, §7, §8, §9, §10

Series [13] shares this test system. The experiment in a line: Postemergence herbicidal activity (% control) against monocot weeds. Particulars: average, about two weeks after application. The format is in vivo.
Excerpt: as §1, §2, §3, §4, §5, §6, §7, §8, §9, §10

In series [14] the test system is Dicots (bindweed, cocklebur, coffeeweed, curly dock, lambsquarters, morningglory, pigweed, ragweed, smartweed, tomato, velvetleaf, wild carrot, wild mustard). The series is described as follows: Preemergence herbicidal activity (% control) against dicot weeds. To be noted: average, about two weeks after application.
Series [15] shares this test system. The experiment in a line: Postemergence herbicidal activity (% control) against dicot weeds. To be noted: average, about two weeks after application.
[16] abbreviates: postemergence applications or applications on transplanted rice.

Consider five compounds from US4419123A, “Herbicidal 4-trifluoromethyl-3'-carbon-substituted-4'-substituted diphenyl ethers” (Rohm and Haas Company, priority 1981, dated 1983).

The structures appear in SMILES notation.

On to `CC(C)Oc1cc(Oc2ccc(C(F)(F)F)cc2Cl)ccc1[N+](=O)[O-]` [Example 4], for which the activity at 4483.4 g/ha in series [1] stood at 98%; in [2], 80%; in [10] it was 100%; in series [11] it was 100%. Moreover, in [3], the Tolerance to snapbeans entry is recorded as “Tolerance (significant tolerance (as shown by 50% or less kill of the test crop at levels of application which give more than 50% kill of many or all of the weeds of Example 73))”. The Tolerance to corn result in series [4] (postemergence applications) and in series [4] (preemergence applications) was “Tolerance (significant tolerance (as shown by 50% or less kill of the test crop at levels of application which give more than 50% kill of many or all of the weeds of Example 73))” in each case. Also, the Tolerance to cotton result in [5] is given as “Tolerance (significant tolerance (as shown by 50% or less kill of the test crop at levels of application which give more than 50% kill of many or all of the weeds of Example 73))”. Also, in series [6] (postemergence applications), the Tolerance to peanuts result is on record as “Tolerance (significant tolerance (as shown by 50% or less kill of the test crop at levels of application which give more than 50% kill of many or all of the weeds of Example 73))”. The Tolerance to rice entry in series [7] (preemergence applications) is recorded as “Tolerance (significant tolerance (as shown by 50% or less kill of the test crop at levels of application which give more than 50% kill of many or all of the weeds of Example 73))”. Moreover, the Tolerance to soybeans result in [8] is recorded as “Tolerance (significant tolerance (as shown by 50% or less kill of the test crop at levels of application which give more than 50% kill of many or all of the weeds of Example 73))”. Further, the Tolerance to wheat result in series [9] (postemergence applications) and in [9] (preemergence applications) was “Tolerance (significant tolerance (as shown by 50% or less kill of the test crop at levels of application which give more than 50% kill of many or all of the weeds of Example 73))” in each case.

`CCOC(=O)C(C)Oc1cc(Oc2ccc(C(F)(F)F)cc2Cl)ccc1[N+](=O)[O-]` (stereo not drawn) [Example 26, 2-Chloro-α,α,α-trifluoro-p-tolyl-3-(1-carbethoxyethoxy)-4-nitrophenyl ether]: the activity at 2241.7 g/ha in series [1] came out at 75%; in series [2] it was 93%; in series [10] it was 99%; in [11], 100%. Besides, the activity at 4483.4 g/ha in series [1] was found to be 98%; in [2], 99%; in series [10], 100%; in [11], 100%. In [3], the Tolerance to snapbeans entry was “Tolerance (significant tolerance (as shown by 50% or less kill of the test crop at levels of application which give more than 50% kill of many or all of the weeds of Example 73))”. Further, in series [4] (postemergence applications), the Tolerance to corn entry is on record as “Tolerance (significant tolerance (as shown by 50% or less kill of the test crop at levels of application which give more than 50% kill of many or all of the weeds of Example 73))”. In addition, the Tolerance to soybeans entry in series [8] is “Tolerance (significant tolerance (as shown by 50% or less kill of the test crop at levels of application which give more than 50% kill of many or all of the weeds of Example 73))”. Moreover, the Tolerance to wheat entry in series [9] (preemergence applications) was “Tolerance (significant tolerance (as shown by 50% or less kill of the test crop at levels of application which give more than 50% kill of many or all of the weeds of Example 73))”.

With `C#CC(C)Oc1cc(Oc2ccc(C(F)(F)F)cc2Cl)ccc1[N+](=O)[O-]` (centres unmarked) [Example 30], the activity at 2241.7 g/ha was 78% in series [1], 91% in [2], 94% in series [10] and 100% in series [11]. Moreover, the activity at 4483.4 g/ha in [1] is 81%; in series [2] it was 75%; in series [10], 99%; in [11], 100%. Besides, the Tolerance to cotton entry in series [5] is “Tolerance (significant tolerance (as shown by 50% or less kill of the test crop at levels of application which give more than 50% kill of many or all of the weeds of Example 73))”. The Tolerance to peanuts entry in series [6] (preemergence applications) is given as “Tolerance (significant tolerance (as shown by 50% or less kill of the test crop at levels of application which give more than 50% kill of many or all of the weeds of Example 73))”. Further, the Tolerance to rice entry in series [7] (setting [16]) and in series [7] (preemergence applications) was “Tolerance (significant tolerance (as shown by 50% or less kill of the test crop at levels of application which give more than 50% kill of many or all of the weeds of Example 73))” each time. Further, the Tolerance to soybeans result in series [8] was “Tolerance (significant tolerance (as shown by 50% or less kill of the test crop at levels of application which give more than 50% kill of many or all of the weeds of Example 73))”. Further, the Tolerance to wheat result in series [9] (postemergence applications) was “Tolerance (significant tolerance (as shown by 50% or less kill of the test crop at levels of application which give more than 50% kill of many or all of the weeds of Example 73))”.

For `O=C([O-])c1cc(Oc2ccc(C(F)(F)F)cc2Cl)ccc1[N+](=O)[O-].[Na+]` [Example 48A, Sodium 5-(2-Chloro-4-trifluoromethylphenoxy)-2-nitrobenzoate], the entries for the “Herbicidal activity (% control), preemergence, monocots” value in series [12] (2 lb./A.) and in series [12] (4 lb./A.) were 89% and 99%, respectively. Moreover, the entries for the “Herbicidal activity (% control), postemergence, monocots” value in series [13] (2 lb./A.) and in [13] (4 lb./A.) were 86% and 92%, respectively. The “Herbicidal activity (% control), preemergence, dicots” value was 84% in series [14] (2 lb./A.) and 98% in series [14] (4 lb./A.). The “Herbicidal activity (% control), postemergence, dicots” value turned out to be 98% in [15] (2 lb./A.) and 100% in [15] (4 lb./A.).

On to `CCN(CCO)c1cc(Oc2ccc(C(F)(F)F)cc2Cl)ccc1[N+](=O)[O-]` [Example 54], for which the activity at 2241.7 g/ha was 98% in series [1], 71% in series [2] and 100% in series [11]. For the same compound, the activity at 4483.4 g/ha was 83% in series [1], 79% in series [2], 75% in series [10] and 100% in [11]. Besides, the Tolerance to corn result in [4] (postemergence applications) and in [4] (preemergence applications) was “Tolerance (significant tolerance (as shown by 50% or less kill of the test crop at levels of application which give more than 50% kill of many or all of the weeds of Example 73))” in each case. Also, in series [6] (postemergence applications), the Tolerance to peanuts result was “Tolerance (significant tolerance (as shown by 50% or less kill of the test crop at levels of application which give more than 50% kill of many or all of the weeds of Example 73))”. Moreover, the Tolerance to rice result in series [7] (setting [16]) and in series [7] (preemergence applications) was “Tolerance (significant tolerance (as shown by 50% or less kill of the test crop at levels of application which give more than 50% kill of many or all of the weeds of Example 73))” each time. In series [8], the Tolerance to soybeans result is recorded as “Tolerance (significant tolerance (as shown by 50% or less kill of the test crop at levels of application which give more than 50% kill of many or all of the weeds of Example 73))”. Also, the Tolerance to wheat result in [9] (postemergence applications) and in series [9] (preemergence applications) was “Tolerance (significant tolerance (as shown by 50% or less kill of the test crop at levels of application which give more than 50% kill of many or all of the weeds of Example 73))” throughout.
